Measurements as given in patent publication US11351148B1, “Pharmaceutical composition Mix A to treat health conditions associated with elevated glucose levels” (priority 2021, dated 2022).

System: skeletal muscle cells
Test: In vitro uptake of 2-DG (glucose derivative) in skeletal muscle cells
Format: cell-based, rat
Experimental: The assay was performed according to manufactures' protocol. Briefly, […] L6 cell line cells were seeded and grown to confluency in white 96 well plates in culture medium containing 10% FBS (serum). After treating with various nutrients with or without insulin cells were starved by incubating in DMEM without glucose and serum. Samples were processed using Glucose Uptake Assay kit according to manufacturer's protocol that uses the glucose analog 2-deoxyglucose (2-DG) to detect and quantify glycose uptake in cells. Luminescence was measured by a Tecan luminometer. 4 repetitions were performed for each treatment when testing individual components and 3 repetitions when testing mixes.

| Compound | stimulating effect on glucose uptake by individual compounds compared to controls (FIG. 6, 0.0001 ug/ml, 24 h at 37° C.) | glucose uptake by the cells, insulin alone (FIG. 8, insulin alone at different concentrations) |
| --- | --- | --- |
| [Cr] [chromium] | highest stimulating effect | – |
| Insulin: human insulin obtained from Sigma | – | concentration dependent increase |
